Results: patent US20220378889A1, “NEO-EPITOPE VACCINES AND METHODS OF TREATING CANCER” (Epivax Therapeutics Inc., priority 2019, published 2022)

What was measured:
[1] = tested on: CT26 murine colon tumor cells; assay: CT26 tumor growth with or without poly-ICLC (Example 13); assay type: in vivo, BALB/c mice; settings: day 25 post-tumor implantation; sc twice per week for three weeks from day 4
Procedure: The goal of this experiment was to determine the requirement for the inclusion of the adjuvant poly-ICLC in a peptide vaccine containing ANCER™ selected neoantigens. For this experiment, female BALB/c mice were implanted subcutaneously with 3×10^5 CT26 murine colon tumor cells. Tumor growth was monitored by caliper measurement and mice were sacrificed 45 days after tumor implantation or when tumor volumes reached 2000 mm^3, whichever came first.
Four vaccine groups were tested (n=10 mice/group):
Group 2=PBS with 50 μg poly-ICLC
Group 3=20 ANCER™ selected (uncapped) peptides with 50 μg poly-ICLC
Group 4=20 ANCER™ selected (uncapped) peptides only
Peptide vaccines were comprised of 20 different ANCER™ selected peptides at a concentration of 5 μg/peptide for a total dose of 100 μg peptide per immunization. Mice were immunized subcutaneously in the opposite flank from tumor implantation twice per week for three weeks, starting at day 4 post-tumor implantation.

[2] = tested on: CT26 tumor cells; assay: CT26 tumor growth and survival after vaccination (Example 1); settings: N=10 mice per group
Procedure: Mice were separated into three groups: 1) PBS control; 2) poly-ICLC (vehicle); 3) ANCER™-selected CT26 Neoantigen Peptides+poly-ICLC. • Group 1: PBS, sc injections at days 5, 8, 12, 15, 19, 22, and 26. • Group 2: poly-ICLC, 50 μg, sc injections at days 5, 8, 12, 15, 19, 22, and 26. • Group 3: 5 μg/ANCER™-selected CT26 Neoantigen Peptide (100 μg total ANCER™-selected CT26 Neoantigen Peptides)+50 μg poly-ICLC, sc injections at days 5, 8, 12, 15, 19, 22, and 26.
All mice (N=10 mice per group) were injected 3*10^5 CT26 tumor cells in 0% Matrigel at day 0. Mice were sacrificed once the tumor volume reached 2,000 mm^3 or at day 45, whichever came first.

## poly-ICLC
[1]
  control of tumor growth relative to PBS / poly-ICLC alone: no difference in tumor growth kinetics
[2]
  mice reaching endpoint (tumor volume of at least 2,000 mm^3) by day 28: 60%
